Laboratory results published in patent US20050153870A1, “Medicinal composition for diagnosis, prevention, or therapy of multiple risk factor syndrome” (priority 2002, published 2005).

Legend:
DOCA hypertension rat [1] = experiment: Periarteritis nodosa; assay type: in vivo; details: 50 mg/kg perorally, DOCA/saline administered rat having one of the kidneys excised out
Protocol: Rats having a cardiovascular disease due to hypertension, often develop periarteritis nodosa, which is typical blood-vessel inflammation caused in thin and small artery such as mesenteric artery. […] These are preventive effects. […] To explain more specifically, mineral corticoid is administered to rats having one of the kidneys excised out and raised for a month by giving saline as drinking water. After confirming onset of periarteritis nodosa, administration of mineral corticoid and saline is stopped and the rats are brought back under normal feeding conditions. As a result, the blood pressure of the rats gradually decreases near a normal value and periarteritis nodosa heals and disappears.

Rat = experiment: Glucogenesis in the liver; assay type: in vivo; details: perorally
Text: Compounds of this series suppresses hepatic glucogenesis which is induced by administration of dexamethazon to a rat. For this reason, it antagonizes the action of glucocorticoid in vivo. The compound further has an effect of suppressing steroid diabetes characterized by polydipsia and polyurea and urine sugar excretion induced by administering cortisol to a rat. […] These facts strongly support that compounds of this series is useful in preventing and/or treating visceral fat syndrome.

DOCA hypertension rat [2] = experiment: Hypercardia, thickened arteries, edema in organs; assay type: in vivo
Text: (§1) As to prevention/therapy of arteriosclerosis, a big difference is observed in effect between medicaments conceivably effective in improving arteriosclerosis, such as fibrate series medicament, thiazolidine series medicament, probucol, and statin series medicament and a compound of the present invention.

quail = experiment: Arteriosclerosis suppressing effect, quail on cholesterol feed; assay type: in vivo; details: poultry feed containing 2% of cholesterol, 9 months, 0.0125 to 0.2% added to feed
Text: as §1

[3] = tested on: hypercholesterolemia patients; experiment: Clinical test I; assay type: in vivo, human; details: for Fasting blood sugar (FBS) level: 5 patients with high blood sugar
Text: The participants consisted of 9 Caucasian males and 7 Caucasian females. They participated in Clinical test I on a voluntary basis after they signed informed consent for clinical test participation, which was proposed by a medical institution based on the Helsinki declaration.
Their ages were 55 years old in average and ranging from 40 to 82 years old. Their average body weigh was 70.2±13.57 kg (standard deviation).
All participants took dietary therapy for treating hypercholesterolemia. Since various medicaments were administered, the period of 8 weeks, prior to Clinical test I, was provided to stop taking all pills, thereby washing out effects of medicaments. During the period of the Clinical test I, it was not allowed to take any other medicament together with a test medicament. Patients with type II diabetes were excluded from the participants; however, 5 patients with a high blood sugar level were included in the participants. Since they were not diagnosed as diabetes, they were allowed to participate in the test. Of 16 participants, 10 patients had hypertension and 4 patients had borderline hypertension defined by WHO. Only 2 patients had normal blood pressure.

[4] = Borderline hypertensive group, 4 patients, 10th week, Placebo period after 8 weeks of medication
[5] = Borderline hypertensive group, 4 patients, 12th week, Placebo period after 8 weeks of medication
[6] = Hypertension group, 10 patients, 10th week, Placebo period after 8 weeks of medication
[7] = Hypertension group, 10 patients, 12th week, Placebo period after 8 weeks of medication

COc1c(Cl)c(C)c(C=O)c(O)c1C/C=C(C)/C=C/[C@@]1(C)[C@H](C)CCC(=O)[C@@H]1C [4-O-methylascochlorin]
Periarteritis nodosa (DOCA hypertension rat [1]): significantly suppressed. When ascofuranone is perorally administered to SHR of a
glucogenesis performed in the liver (Rat): performed in the liver is suppressed.
edema of various organs including the kidney (DOCA hypertension rat [2]): such as hypercardia and thickened arteries, and suppresses edema of various
lesions associated with cardiovascular diseases such as hypercardia and thickened arteries (DOCA hypertension rat [2]): 4-0-methylascochlorin alleviates lesions associated with cardiovascular diseases
atherosclerosis of the aorta, hypercholesterolemia, deposition of cholesterol onto the heart and the aorta (quail): the aforementioned changes are suppressed.
normal blood pressure ([3]; 2 patients of normal blood pressure): does not affect normal blood pressure
blood sugar levels ([3]; 5 cases exhibiting high blood sugar): brought back to normal levels
Fasting blood sugar (FBS) level ([3]; 1st week, 0.5 mg/kg, before medication 132.4 ± 16.0): 100.0 ± 11.0 mg/dL
Fasting blood sugar (FBS) level ([3]; 2nd week, 1.0 mg/kg, before medication 132.4 ± 16.0): 102.0 ± 4.0 mg/dL
Fasting blood sugar (FBS) level ([3]; 3rd week, 2.0 mg/kg, before medication 132.4 ± 16.0): 103.6 ± 12.1 mg/dL
Fasting blood sugar (FBS) level ([3]; 4th week, 4.0 mg/kg, before medication 132.4 ± 16.0): 103.2 ± 11.7 mg/dL
Fasting blood sugar (FBS) level ([3]; 6th week, 8.0 mg/kg, before medication 132.4 ± 16.0): 98.0 ± 4.6 mg/dL
Fasting blood sugar (FBS) level ([3]; 8th week, 16.0 mg/kg, before medication 132.4 ± 16.0): 93.3 ± 6.1 mg/dL
Fasting blood sugar (FBS) level ([3]; 10th week, Placebo period after 8 weeks of medication): 93.5 ± 6.4 mg/dL
Fasting blood sugar (FBS) level ([3]; 12th week, Placebo period after 8 weeks of medication): 100.5 ± 11.6 mg/dL
Blood sugar level ([3]; 5 patients, 6th week, 8 mg/kg): completely returns to a normal level
Total serum cholesterol ([3]; 6th week, 16 folds the amount of 0.5 mg/kg): decreased to the upper limit of the normal range
decrease of body weight compared to before medication ([3]; 8 weeks after the initiation of medication, P<0.001): 0.9 kg
blood pressure of the systolic period and the diastolic period ([3]; 10 hypertensive patients, 8th week): decreased both pressure values to normal levels
lowering of serum total cholesterol by medication ([3]; 16 hypercholesterolemia patients): ≥ 30%
Total serum cholesterol ([3]; 16 hypercholesterolemia patients, 1st week, 0.5 mg/kg, before medication 342.0 ± 61.0): 272.6 ± 62.7 mg/dL
Total serum cholesterol ([3]; 16 hypercholesterolemia patients, 2nd week, 1.0 mg/kg, before medication 342.0 ± 61.0): 266.5 ± 66.7 mg/dL
Total serum cholesterol ([3]; 16 hypercholesterolemia patients, 3rd week, 2.0 mg/kg, before medication 342.0 ± 61.0): 268.7 ± 66.0 mg/dL
Total serum cholesterol ([3]; 16 hypercholesterolemia patients, 4th week, 4.0 mg/kg, before medication 342.0 ± 61.0): 254.2 ± 65.7 mg/dL
Total serum cholesterol ([3]; 16 hypercholesterolemia patients, 6th week, 8.0 mg/kg, before medication 342.0 ± 61.0): 217.4 ± 58.8 mg/dL
Total serum cholesterol ([3]; 16 hypercholesterolemia patients, 8th week, 16.0 mg/kg, before medication 342.0 ± 61.0): 229.5 ± 61.9 mg/dL
Total serum cholesterol ([3]; 16 hypercholesterolemia patients, 10th week, Placebo period after 8 weeks of medication): 255.9 ± 57.6 mg/dL
Total serum cholesterol ([3]; 16 hypercholesterolemia patients, 12th week, Placebo period after 8 weeks of medication): 264.0 ± 57.5 mg/dL
abnormality in the serum biological test, hematocyte test, and urine test ([3]; 16 patients, 12 weeks): No abnormality ascribed to medication
side effect ([3]; 16 patients, 12 weeks, 0.5 to 16.0 mg/kg, not so severe, medication continued): one case with light eruption and one case with dizziness
Diastolic pressure ([3]; Borderline hypertensive group, 4 patients, 1st week, 0.5 mg/kg, before medication 87.1 ± 2.7): 82.1 ± 3.9 mmHg
Systolic pressure ([3]; Borderline hypertensive group, 4 patients, 1st week, 0.5 mg/kg, before medication 149.3 ± 7.9): 133.6 ± 9.0 mmHg
Diastolic pressure ([3]; Borderline hypertensive group, 4 patients, 2nd week, 1.0 mg/kg, before medication 87.1 ± 2.7): 81.4 ± 4.8 mmHg
Systolic pressure ([3]; Borderline hypertensive group, 4 patients, 2nd week, 1.0 mg/kg, before medication 149.3 ± 7.9): 134.3 ± 6.7 mmHg
Diastolic pressure ([3]; Borderline hypertensive group, 4 patients, 3rd week, 2.0 mg/kg, before medication 87.1 ± 2.7): 81.4 ± 2.4 mmHg
Systolic pressure ([3]; Borderline hypertensive group, 4 patients, 3rd week, 2.0 mg/kg, before medication 149.3 ± 7.9): 134.3 ± 9.3 mmHg
Diastolic pressure ([3]; Borderline hypertensive group, 4 patients, 4th week, 4.0 mg/kg, before medication 87.1 ± 2.7): 80.7 ± 3.5 mmHg
Systolic pressure ([3]; Borderline hypertensive group, 4 patients, 4th week, 4.0 mg/kg, before medication 149.3 ± 7.9): 130.7 ± 8.9 mmHg
Diastolic pressure ([3]; Borderline hypertensive group, 4 patients, 6th week, 8.0 mg/kg, before medication 87.1 ± 2.7): 78.6 ± 3.8 mmHg
Systolic pressure ([3]; Borderline hypertensive group, 4 patients, 6th week, 8.0 mg/kg, before medication 149.3 ± 7.9): 130.7 ± 8.9 mmHg
Diastolic pressure ([3]; Borderline hypertensive group, 4 patients, 8th week, 16.0 mg/kg, before medication 87.1 ± 2.7): 77.9 ± 3.9 mmHg
Systolic pressure ([3]; Borderline hypertensive group, 4 patients, 8th week, 16.0 mg/kg, before medication 149.3 ± 7.9): 130.0 ± 8.2 mmHg
Diastolic pressure [3, 4]: 78.6 ± 4.8 mmHg
Systolic pressure [3, 4]: 130.7 ± 9.3 mmHg
Diastolic pressure [3, 5]: 78.6 ± 4.8 mmHg
Systolic pressure [3, 5]: 132.1 ± 10.4 mmHg
Diastolic pressure ([3]; Hypertension group, 10 patients, 1st week, 0.5 mg/kg, before medication 91.0 ± 7.7): 83.5 ± 4.7 mmHg
Systolic pressure ([3]; Hypertension group, 10 patients, 1st week, 0.5 mg/kg, before medication 161.5 ± 21.1): 143.5 ± 28.5 mmHg
Diastolic pressure ([3]; Hypertension group, 10 patients, 2nd week, 1.0 mg/kg, before medication 91.0 ± 7.7): 83.0 ± 5.4 mmHg
Systolic pressure ([3]; Hypertension group, 10 patients, 2nd week, 1.0 mg/kg, before medication 161.5 ± 21.1): 147.5 ± 28.5 mmHg
Diastolic pressure ([3]; Hypertension group, 10 patients, 3rd week, 2.0 mg/kg, before medication 91.0 ± 7.7): 84.5 ± 6.0 mmHg
Systolic pressure ([3]; Hypertension group, 10 patients, 3rd week, 2.0 mg/kg, before medication 161.5 ± 21.1): 147.5 ± 26.1 mmHg
Diastolic pressure ([3]; Hypertension group, 10 patients, 4th week, 4.0 mg/kg, before medication 91.0 ± 7.7): 85.5 ± 9.44 mmHg
Systolic pressure ([3]; Hypertension group, 10 patients, 4th week, 4.0 mg/kg, before medication 161.5 ± 21.1): 148.5 ± 26.8 mmHg
Diastolic pressure ([3]; Hypertension group, 10 patients, 6th week, 8.0 mg/kg, before medication 91.0 ± 7.7): 83.5 ± 9.44 mmHg
Systolic pressure ([3]; Hypertension group, 10 patients, 6th week, 8.0 mg/kg, before medication 161.5 ± 21.1): 144.5 ± 29.8 mmHg
Diastolic pressure ([3]; Hypertension group, 10 patients, 8th week, 16.0 mg/kg, before medication 91.0 ± 7.7): 78.1 ± 3.7 mmHg
Systolic pressure ([3]; Hypertension group, 10 patients, 8th week, 16.0 mg/kg, before medication 161.5 ± 21.1): 130.0 ± 7.6 mmHg
Diastolic pressure [3, 6]: 83.5 ± 8.8 mmHg
Systolic pressure [3, 6]: 145.5 ± 26.3 mmHg
Diastolic pressure [3, 7]: 84.0 ± 9.7 mmHg
Systolic pressure [3, 7]: 151.5 ± 32.4 mmHg
blood pressure of the hypertension group and borderline hypertension group ([3]; medication for 8 weeks): dropped to the upper limit of a normal range
drop of total serum cholesterol, average ([3]; one week after 0.5 mg/kg perorally): 70 mg/dL
Serum neutral fat ([3]; ratio of serum neutral fat/serum total cholesterol 1.2 or less (hyperlipemia type IIa)): significantly decreased
Serum neutral fat ([3]; ratio of serum neutral fat/serum total cholesterol 1.2 or more (hyperlipemia type IIb and type IV)): a significant decrease of serum neutral fat was not observed
